# In patent publication US20230338572A1, “ANTI-TM4SF1 ANTIBODY-DRUG CONJUGATES COMPRISING CLEAVABLE LINKERS AND METHODS OF USING SAME” (Angiex, Inc., priority 2020, published 2023):
# T1: human TM4SF1 (transmembrane-4 L six family member-1), on HUVEC cells (UniProt P30408 1-202)
# T1 chain: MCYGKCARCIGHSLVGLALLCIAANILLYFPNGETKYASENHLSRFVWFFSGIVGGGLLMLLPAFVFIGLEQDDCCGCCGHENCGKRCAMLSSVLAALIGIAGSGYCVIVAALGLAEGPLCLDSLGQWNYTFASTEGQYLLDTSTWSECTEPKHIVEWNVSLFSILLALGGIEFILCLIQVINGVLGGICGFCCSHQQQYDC
# Tests used:
# MS1 = assay: In vitro cell proliferation inhibition assay (Example 10); format: cell-based, mouse; settings: free drug/linker payload, 5 days
# Description: (§1) The effects of antibody drug-conjugates (drug to antibody ratio (DAR) varying from 0.9 to 3.5) containing a drug (maytansine or camptothecin) assessed in cultured mouse (MS1) and human (HUVEC, and MiaPaCa2) cells. The structures of the ADC tested are listed in Table 8 and shown in FIG. 19 (ADC) and FIG. 26 (ADC2, ADC3, and ADC4). Both Exemplary Antibody 1 and Exemplary Antibody 2 contain human IgG1 constant region with YTEC mutation. Cells were incubated for 5 days with the antibody drug conjugate before assessing cell viability on day 5.
# (§2) In this experiment, different payloads were respectively assessed in cultured mouse (MS1) and human (MiaPaCa2 and HUVEC) cells. Cells were treated incubated for 5 days with the antibody drug conjugate before assessing cell viability on day 5.
# HUVEC = assay: as above; format: cell-based, human; settings: free drug/linker payload, 5 days
# Description: as §1, §2
# [1] = cited from earlier work
# MiaPaCa2 = assay: In vitro cell proliferation inhibition assay (Example 10); format: cell-based, human; settings: free drug/linker payload; 5 days
# Description: as §1, §2
# [2] = target: T1, human TM4SF1 (transmembrane-4 L six …); assay: flow cytometry, HUVEC
molecule,measurement,setting,value
"CC[C@@]1(O)C(=O)OCc2c1cc1n(c2=O)Cc2cc3ccccc3nc2-1 [payload 3, Camptothecin]",EC50,"MS1; Mus musculus, MS-1, 120 h",34.3 nM
same,EC50,"HUVEC; Homo sapiens, HUVEC, 120 h",1.89 nM
Combretastatin [CA4P],Overall survival,"[1]; Phase II FALCON study, reduced from 16.2",13.6 months
same,Patients who experienced heart attacks while being treated,"[1]; human, in vivo",seven
Maleimide-ethylamino-nosyl-Ahx-Maytansine [payload 1],EC50,MiaPaCa2,0.0395 nM
same,EC50,HUVEC,0.114 nM
Maleimide-tetrazine-PEG3-methyl-EDA-nosyl-Camptothecin [payload 2],EC50,MS1,6710 nM
same,EC50,HUVEC,1450 nM
"AGX-A07 ""YTEC"" variant (anti-TM4SF1 antibody AGX-A07 with Fc mutations N297C, M252Y, S254T and T256E), naked antibody (antibody, V domains shown) VH: QIQLVQSGPELKKPGETVKISCKASGYTFTNYGVKWVKQAPGKDLKWMGWINTYTGNPIYAADFKGRFAFSLETSASTAFLQINNLKNEDTATYFCVRFQYGDYRYFDVWGAGTTVTVSS VL: QIILSQSPAILSASPGEKVTMTCRANSGISFINWYQQKPGSSPKPWIYGTANLASGVPARFGGSGSGTSYSLTISRVEAEDAATYYCQQWSSNPLTFGAGTKLELR",EC50,[2],1.75 nM
